Assay results published in patent publication US6716829B2, “Aldosterone antagonist and cyclooxygenase-2 inhibitor combination therapy to prevent or treat inflammation-related cardiovascular disorders” (Pharmacia Corporation, priority 2000, dated 2004).
“Also recorded” adds a separate entry of the source.

What was measured:
[1] = system: interstitial collagen; assay: Assay B: myocardial fibrosis (interstitial collagen volume fraction, hydroxyproline concentration); format: in vivo, Male Sprague Dawley rats; conditions: aldosterone/salt treatment, 4 weeks
Method: Assay B: In Vivo Aldosterone Infusion Model Male Sprague Dawley rats (n=39; BW=250 g) […] Uni-nephrectomy performed during implantation of mini-pumps 2. Aldosterone ([…], sc via alzet minipump) 2. […] Hearts were stained with hematoxylin&eosin and the collagen specific dye picro-sirius red and were analyzed for determination of interstitial collagen volume fraction and morphologic abnormalities (i.e. necrosis, vascular injury). Hydroxyproline concentration was measured in the frozen hearts.

[2] = system: COX-2; assay: Assay B: COX-2 mRNA in heart by quantitative RT-PCR (Taqman); format: in vivo, Male Sprague Dawley rats
Method: (§1) Assay B: In Vivo Aldosterone Infusion Model Male Sprague Dawley rats (n=39; BW=250 g) 2. Aldosterone ([…], sc via alzet minipump) 2. […] Hearts were harvested and divided by half through a transverse section at the mid-ventricles: The upper half was stored into formalin. The bottom part was snap-frozen in liquid nitrogen for biochemical analysis. Determination of osteopontin and COX-2 was performed by quantitative RT-PCR (Taqman). Osteopontin was also identified in the heart by immunohistochemistry.

[3] = system: osteopontin; assay: Assay B: osteopontin mRNA in heart by quantitative RT-PCR (Taqman); format: in vivo, Male Sprague Dawley rats
Method: as §1

[4] = system: angiotensin II infused, captopril treated stroke prone spontaneously hypertensive rats; assay: Urinary protein excretion in angiotensin II infused, captopril treated stroke prone spontaneously hypertensive rats; format: in vivo; conditions: captopril treated stroke prone spontaneously hypertensive rats (FIG. 35)
[5] = system: osteopontin; assay: Assay B: serum (circulating) osteopontin levels at 28 days; format: in vivo, Male Sprague Dawley rats; conditions: NaCl 1% drinking rats with aldosterone and eplerenone
Method: (§2) Assay B: In Vivo Aldosterone Infusion Model Male Sprague Dawley rats (n=39; BW=250 g) 2. Aldosterone (0.75 mg/hr, sc via alzet minipump) 2.

[6] = system: angiotensin II infused, captopril treated stroke prone spontaneously hypertensive rats; assay: Histopathological scores for renal injury in angiotensin II infused, captopril treated stroke prone spontaneously hypertensive rats; format: in vivo; conditions: captopril treated stroke prone spontaneously hypertensive rats (FIG. 36)
[7] = system: stroke-prone spontaneously hypertensive rats; assay: Survival and cerebral injury in stroke-prone spontaneously hypertensive rats; format: in vivo
[8] = system: angiotensin II infused rats; assay: Assay A: urinary electrolyte excretion (urinary Na+/K+ ratio as index for natriuresis); format: in vivo, Male Wistar rats; conditions: 1% NaCl, eplerenone 100 mpk
Text: 24-hours food and fluid intake and urine output measured every day Urine samples collected every day for determination of urinary electrolytes. Electrolyte excretion. The ratio between daily urinary Na^+ excretion and urinary K^+ excretion (U Na^+/K^+ ratio) was used as an index for natriuresis. Urinary Na^+/K^+ ratio was similar in all groups before the start of the treatments, and increased similarly in all animals upon initiation of the high salt diet.

[9] = system: MCP-1; assay: Assay B: MCP-1 mRNA expression at 28 days; format: in vivo, Male Sprague Dawley rats; conditions: aldosterone infused rats, 28 days (FIG. 46)
Method: as §2

[10] = aldosterone/salt + vehicle vs control
[11] = hearts of aldosterone/salt-treated rats, quantitative RT-PCR, eplerenone 100 mpk

SMILES	Myocardial fibrosis (interstitial collagen volume fraction, hydroxyproline concentration) [1]	COX-2 mRNA expression increase [2, 10] [fold]	COX-2 relative mRNA expression [2, 11]	Osteopontin mRNA upregulation [3, 10] [fold]	Osteopontin relative mRNA expression [3, 11]	Increased urinary protein excretion [4]	Circulating (serum) osteopontin levels [5]	Histopathological scores for renal injury [6]	Survival ([7]; stroke-prone spontaneously hypertensive rats (FIG. 37))	Cerebral injury ([7]; stroke-prone spontaneously hypertensive rats (FIGS. 37, 38))	Urinary Na+/K+ ratio (diuretic or natriuretic effect) [8]	MCP-1 expression [9]
C[C@]12CCC(=O)C=C1CC[C@@H]1[C@@H]2[C@@H](O)C[C@]2(C=O)[C@@H](C(=O)CO)CC[C@@H]12 [Aldosterone]	absence of myocardial fibrosis	3	3.7±0.46	7	12.25±1.7							
COC(=O)[C@@H]1CC2=CC(=O)CC[C@]2(C)[C@@]23O[C@@H]2C[C@@]2(C)[C@@H](CC[C@@]24CCC(=O)O4)[C@H]13 [Eplerenone]						inhibition	marked decrease	reduction	increased survival	reduced cerebral injury; also recorded: decrease	did not produce a significant diuretic or natriuretic effect	attenuated
